Active and inactive are the calls of the source. The calls are words filed in the database; no cut-off is given here.
Experiments:
RAW264.7 [1] = test: Inhibition of LPS-stimulated ROS production in mouse RAW264.7 cells preincubated for 1 hr followed by LPS stimulation after 24 hrs by CMH2DCFDA probe-based fluorescence assay
RAW264.7 [2] = test: Cytotoxicity against mouse RAW264.7 cells at 10 uM after 24 hrs by MTS assay; assay type: cell-based; settings: raw264.7, 24 h
[3] = Cytotoxicity against mouse RAW264.7 cells assessed as cell viability at 10 uM after 24 hrs by MTS assay relative to control; assay type: cell-based; settings: read-out: Activity
Mus musculus = species on record: Mus musculus; test: Inhibition of LPS-stimulated NADPH oxidase activation in mouse RAW264.7 cells assessed as decrease in superoxide formation at 1 uM using NADPH as substrate preincubated for 1 hr followed by LPS stimulation for 24 hrs and subsequent substrate addition after 30 mins by lucigenin-based chemiluminescence assay; assay type: cell-based

Compound | IC50 (RAW264.7 [1]) [µM] | Activity (RAW264.7 [2]) | viability at 24 h, 10 µM [3] [%] | inhibition (Mus musculus)
O=C1/C(=C/c2cccc(F)c2)Cc2ccc(O)cc21 | > 10 | Non-Toxic | – | –
O=C1/C(=C/c2cccc(OC(F)(F)F)c2)Cc2cccc(O)c21 | 4.62 | Non-Toxic | – | –
O=C1/C(=C/c2ccc(C(F)(F)F)cc2)Cc2cc(O)ccc21 | 5.55 | Non-Toxic | – | –
O=C1/C(=C/c2cccc(Br)c2)Cc2cc(O)ccc21 | 4.05 | Non-Toxic | – | –
O=C1/C(=C/c2ccccc2C(F)(F)F)Cc2ccccc21 | > 10 | Non-Toxic | – | –
O=C1/C(=C/c2ccc(Br)cc2)Cc2ccccc21 | > 10 | Non-Toxic | – | –
O=C1/C(=C/c2ccc(OC(F)(F)F)cc2)Cc2ccc(O)cc21 | > 10 | Non-Toxic | – | –
O=C1/C(=C/c2ccccc2F)Cc2ccccc21 | > 10 | Non-Toxic | – | –
O=C1/C(=C/c2ccc(F)cc2)Cc2cc(O)ccc21 | > 10 | Non-Toxic | – | –
O=C1/C(=C/c2ccccc2OC(F)(F)F)Cc2cccc(O)c21 | 3.25 | Non-Toxic | – | –
O=C1/C(=C/c2ccccc2C(F)(F)F)Cc2cc(O)ccc21 | > 10 | Non-Toxic | – | –
O=C1/C(=C/c2ccccc2F)Cc2cccc(O)c21 | 3.82 | Non-Toxic | – | –
O=C1/C(=C/c2cccc(C(F)(F)F)c2)Cc2c(O)cccc21 | > 10 | Non-Toxic | – | –
O=C1/C(=C/c2ccccc2C(F)(F)F)Cc2c(O)cccc21 | > 10 | Non-Toxic | – | –
O=C1/C(=C/c2ccccc2F)Cc2cc(O)ccc21 | > 10 | Non-Toxic | – | –
O=C1/C(=C/c2ccccc2Br)Cc2cc(O)ccc21 | 8.18 | Non-Toxic | – | –
O=C1/C(=C/c2ccc(F)cc2)Cc2c(O)cccc21 | > 10 | Non-Toxic | – | –
O=C1/C(=C/c2ccc(Br)cc2)Cc2cccc(O)c21 | > 10 | Non-Toxic | – | –
O=C1/C(=C/c2cccc(OC(F)(F)F)c2)Cc2cc(O)ccc21 | 8.01 | Non-Toxic | – | –
O=C1/C(=C/c2cccc(OC(F)(F)F)c2)Cc2ccccc21 | > 10 | Non-Toxic | – | –
O=C1/C(=C/c2cccc(C(F)(F)F)c2)Cc2ccc(O)cc21 | 4.55 | Non-Toxic | – | –

Compound | IC50 (RAW264.7 [1]) [µM] | Activity (RAW264.7 [2]) | viability at 24 h, 10 µM [3] [%] | inhibition (Mus musculus)
O=C1/C(=C/c2ccc(F)cc2)Cc2ccccc21 | > 10 | Non-Toxic | – | –
O=C1/C(=C/c2cccc(F)c2)Cc2cc(O)ccc21 | > 10 | Non-Toxic | – | –
O=C1/C(=C/c2cccc(F)c2)Cc2c(O)cccc21 | > 10 | Non-Toxic | – | –
O=C1/C(=C/c2ccc(C(F)(F)F)cc2)Cc2ccc(O)cc21 | > 10 | Non-Toxic | – | –
O=C1/C(=C/c2ccccc2Br)Cc2cccc(O)c21 | > 10 | Non-Toxic | – | –
O=C1/C(=C/c2ccccc2F)Cc2ccc(O)cc21 | > 10 | Non-Toxic | – | –
O=C1/C(=C/c2cccc(Br)c2)Cc2cccc(O)c21 | > 10 | Non-Toxic | – | –
O=C1/C(=C/c2ccccc2F)Cc2c(O)cccc21 | > 10 | Non-Toxic | – | –
O=C1/C(=C/c2ccccc2OC(F)(F)F)Cc2cc(O)ccc21 | 3.38 | Non-Toxic | – | –
O=C1/C(=C/c2cccc(OC(F)(F)F)c2)Cc2ccc(O)cc21 | > 10 | Non-Toxic | – | –
O=C1/C(=C/c2ccccc2Br)Cc2ccc(O)cc21 | 4 | Non-Toxic | – | –
O=C1/C(=C/c2cccc(C(F)(F)F)c2)Cc2cc(O)ccc21 | > 10 | Non-Toxic | – | –
O=C1/C(=C/c2ccc(C(F)(F)F)cc2)Cc2cccc(O)c21 | 3.89 | Non-Toxic | – | –
O=C1/C(=C/c2ccccc2C(F)(F)F)Cc2ccc(O)cc21 | 2.61 | Non-Toxic | – | –
O=C1/C(=C/c2ccc(OC(F)(F)F)cc2)Cc2ccccc21 | > 10 | Non-Toxic | – | –
O=C1/C(=C/c2ccccc2)Cc2ccccc21 | > 10 | – | < 90 | –
O=C1/C(=C/c2ccccc2OC(F)(F)F)Cc2ccccc21 | 7.27 | Non-Toxic | – | –
O=C1/C(=C/c2cccc(Br)c2)Cc2ccccc21 | > 10 | Non-Toxic | – | –
O=C1/C(=C/c2ccc(F)cc2)Cc2cccc(O)c21 | 5.06 | Non-Toxic | – | –
O=C1/C(=C/c2ccccc2OC(F)(F)F)Cc2c(O)cccc21 | > 10 | Non-Toxic | – | –
O=C1/C(=C/c2ccc(Br)cc2)Cc2ccc(O)cc21 | 4.27 | – | < 90 | –

Compound | IC50 (RAW264.7 [1]) [µM] | Activity (RAW264.7 [2]) | viability at 24 h, 10 µM [3] [%] | inhibition (Mus musculus)
O=C1/C(=C/c2cccc(F)c2)Cc2ccccc21 | > 10 | Non-Toxic | – | –
O=C1/C(=C/c2cccc(C(F)(F)F)c2)Cc2ccccc21 | > 10 | Non-Toxic | – | –
O=C1/C(=C/c2ccc(C(F)(F)F)cc2)Cc2ccccc21 | > 10 | Non-Toxic | – | –
O=C1/C(=C/c2cccc(OC(F)(F)F)c2)Cc2c(O)cccc21 | > 10 | Non-Toxic | – | –
O=C1/C(=C/c2ccc(OC(F)(F)F)cc2)Cc2cc(O)ccc21 | > 10 | Non-Toxic | – | –
O=C1/C(=C/c2cccc(Br)c2)Cc2ccc(O)cc21 | 3.9 | Non-Toxic | – | –
O=C1/C(=C/c2cccc(C(F)(F)F)c2)Cc2cccc(O)c21 | > 10 | Non-Toxic | – | –
O=C1/C(=C/c2ccc(F)cc2)Cc2ccc(O)cc21 | > 10 | Non-Toxic | – | –
O=C1/C(=C/c2ccccc2Br)Cc2ccccc21 | > 10 | Non-Toxic | – | –
O=C1/C(=C/c2ccccc2C(F)(F)F)Cc2cccc(O)c21 | 1.94 | Non-Toxic | – | –
O=C1/C(=C/c2cccc(Br)c2)Cc2c(O)cccc21 | > 10 | Non-Toxic | – | –
O=C1/C(=C/c2ccccc2OC(F)(F)F)Cc2ccc(O)cc21 | 1.33 | Non-Toxic | – | Active
O=C1/C(=C/c2ccc(Br)cc2)Cc2c(O)cccc21 | > 10 | Non-Toxic | – | –
O=C1/C(=C/c2ccccc2Br)Cc2c(O)cccc21 | > 10 | Non-Toxic | – | –
O=C1/C(=C/c2ccc(Br)cc2)Cc2cc(O)ccc21 | 6.05 | Non-Toxic | – | –
O=C1/C(=C/c2ccc(OC(F)(F)F)cc2)Cc2cccc(O)c21 | 3.15 | Non-Toxic | – | –
O=C1/C(=C/c2cccc(F)c2)Cc2cccc(O)c21 | 5.61 | Non-Toxic | – | –
O=C1/C(=C/c2ccc(C(F)(F)F)cc2)Cc2c(O)cccc21 | > 10 | Non-Toxic | – | –
O=C1/C(=C/c2ccc(OC(F)(F)F)cc2)Cc2c(O)cccc21 | > 10 | Non-Toxic | – | –

— ChEMBL document CHEMBL4033626, “Design, synthesis, and structure-activity relationship study of halogen containing 2-benzylidene-1-indanone derivatives for inhibition of LPS-stimulated ROS production in RAW 264.7 macrophages” (Eur J Med Chem, 2017)
